# Patent US20180256592A1, “ANTIBACTERIAL COMPOSITIONS” (priority 2015, published 2018)
# Assays:
# Type in all cases: cell-based
# [1] = test system: Klebsiella H 523 (KPC, class A); test: MIC by agar dilution (MHA, CLSI); conditions: for MIC: drug alone
# Description: (§1) The antibacterial activity of combinations according to the invention was investigated against various bacterial strains. In a typical study, minimum inhibitory concentrations (MICs) were determined using Muller Hinton Agar (MHA) (BD, USA) according to Clinical and Laboratory Standards Institute (CLSI) recommendations, (Clinical and Laboratory Standards Institute (CLSI), Performance Standards for Antimicrobial Susceptibility Testing, 20th Informational Supplement, M 100-S20, Volume 30, No. 1, 2010). In short, the inocula were adjusted to deliver about […] colony forming units (CFU) per spot with a multipoint inoculator (Applied Quality Services, UK). The plates were pored with doubling concentration range of the test combinations according to invention containing MHA. The plates were inoculated and were incubated at 35° C. for 18 hours.
# [2] = test system: Klebsiella H 515 (KPC, class A); test: MIC by agar dilution (MHA, CLSI); conditions: for MIC: drug alone
# Description: as §1
# [3] = test system: Klebsiella J 117 (SHV, OMP); test: MIC by agar dilution (MHA, CLSI); conditions: for MIC: drug alone
# Description: as §1
# NCTC KP 13442 (OXA-48) = test: MIC by agar dilution (MHA, CLSI); conditions: for MIC: drug alone
# Description: as §1
# [4] = test system: Klebsiella J 130 (SHV, OMP); test: MIC by agar dilution (MHA, CLSI); conditions: for MIC: drug alone
# Description: as §1
# [5] = test system: Klebsiella J 101 (TEM, SHV, OMP); test: MIC by agar dilution (MHA, CLSI); conditions: for MIC: drug alone
# Description: as §1
# [6] = test system: KP S 691 (OXA 181, SHV, TEM, CTX-M 1); test: MIC by agar dilution (MHA, CLSI)
# Description: as §1
# [7] = test system: Klebsiella J 102 (TEM, SHV, OMP); test: MIC by agar dilution (MHA, CLSI); conditions: for MIC: drug alone
# Description: as §1
# [8] = test system: Klebsiella H 521 (KPC, class A); test: MIC by agar dilution (MHA, CLSI); conditions: for MIC: drug alone
# Description: as §1
# [9] = test system: KP S 440 (OXA 181, SHV, TEM, CTX-M 1); test: MIC by agar dilution (MHA, CLSI); conditions: for MIC: drug alone
# Description: as §1
# [10] = test system: Klebsiella H 520 (KPC, class A); test: MIC by agar dilution (MHA, CLSI); conditions: for MIC: drug alone
# Description: as §1
# [11] = test system: highly resistant gram negative bacterial strains; test: MIC by agar dilution (MHA, CLSI), whole strain panel of Table 1; conditions: for MIC: read-out: MICs when used alone
# Description: as §1
# [12] = KP S 691 (OXA 181, SHV, TEM, CTX-M 1)
compound,measurement,setting,value
"C=CC1=C(C(=O)O)N2C(=O)[C@@H](NC(=O)/C(=N\O)c3csc(N)n3)[C@H]2SC1 [Cefdinir, cefdinir]",MIC in presence of Clavulanic acid (4 μg/ml),[1],>32 µg/mL
same,MIC,[1],> 32 µg/mL
same,MIC in presence of Clavulanic acid (4 μg/ml),[2],>32 µg/mL
same,MIC,[2],> 32 µg/mL
same,MIC in presence of Clavulanic acid (4 μg/ml),[3],0.5 µg/mL
same,MIC,[3],> 32 µg/mL
same,MIC in presence of Clavulanic acid (4 μg/ml),NCTC KP 13442 (OXA-48),32 µg/mL
same,MIC,NCTC KP 13442 (OXA-48),32 µg/mL
same,MIC in presence of Clavulanic acid (4 μg/ml),[4],16 µg/mL
same,MIC,[4],> 32 µg/mL
same,MIC in presence of Clavulanic acid (4 μg/ml),[5],>32 µg/mL
same,MIC,[5],> 32 µg/mL
same,MIC,[6],> 32 µg/mL
same,MIC in presence of Clavulanic acid (4 μg/ml),[6]; [12],>32 µg/mL
same,MIC in presence of Clavulanic acid (4 μg/ml),[7],>32 µg/mL
same,MIC,[7],> 32 µg/mL
same,MIC in presence of Clavulanic acid (4 μg/ml),[8],>32 µg/mL
same,MIC,[8],> 32 µg/mL
same,MIC in presence of Clavulanic acid (4 μg/ml),[9],>32 µg/mL
same,MIC,[9],> 32 µg/mL
same,MIC in presence of Clavulanic acid (4 μg/ml),[10],>32 µg/mL
same,MIC,[10],> 32 µg/mL
"C[C@]1(Cn2ccnn2)[C@H](C(=O)O)N2C(=O)C[C@H]2S1(=O)=O [Tazobactam, tazobactam]",MIC,[11],> 32 µg/mL
"O=C(O)[C@H]1/C(=C/CO)O[C@@H]2CC(=O)N21 [Clavulanic acid, clavulanic acid]",MIC,[11],> 32 µg/mL
"Nc1nc(/C(=C/CC(=O)O)C(=O)N[C@@H]2C(=O)N3C(C(=O)O)=CCS[C@H]23)cs1 [Ceftibuten, ceftibuten]",MIC in presence of Clavulanic acid (4 μg/ml),[1],4 µg/mL
same,MIC in presence of Sulbactam (4 μg/ml),[1]; + sulbactam 4 μg/ml,4 µg/mL
same,MIC in presence of Tazobactam (4 μg/ml),[1]; + tazobactam 4 μg/ml,8 µg/mL
same,MIC,[1],16 µg/mL
same,MIC in presence of Clavulanic acid (4 μg/ml),[2],4 µg/mL
same,MIC in presence of Sulbactam (4 μg/ml),[2]; + sulbactam 4 μg/ml,8 µg/mL
same,MIC in presence of Tazobactam (4 μg/ml),[2]; + tazobactam 4 μg/ml,8 µg/mL
same,MIC,[2],16 µg/mL
same,MIC in presence of Clavulanic acid (4 μg/ml),[3],0.12 µg/mL
same,MIC in presence of Sulbactam (4 μg/ml),[3]; + sulbactam 4 μg/ml,32 µg/mL
same,MIC in presence of Tazobactam (4 μg/ml),[3]; + tazobactam 4 μg/ml,32 µg/mL
same,MIC,[3],32 µg/mL
same,MIC in presence of Clavulanic acid (4 μg/ml),NCTC KP 13442 (OXA-48),0.12 µg/mL
same,MIC in presence of Sulbactam (4 μg/ml),NCTC KP 13442 (OXA-48); + sulbactam 4 μg/ml,0.25 µg/mL
same,MIC in presence of Tazobactam (4 μg/ml),NCTC KP 13442 (OXA-48); + tazobactam 4 μg/ml,0.25 µg/mL
same,MIC,NCTC KP 13442 (OXA-48),0.25 µg/mL
same,MIC in presence of Clavulanic acid (4 μg/ml),[4],4 µg/mL
same,MIC in presence of Sulbactam (4 μg/ml),[4]; + sulbactam 4 μg/ml,>32 µg/mL
same,MIC in presence of Tazobactam (4 μg/ml),[4]; + tazobactam 4 μg/ml,>32 µg/mL
same,MIC,[4],> 32 µg/mL
same,MIC in presence of Clavulanic acid (4 μg/ml),[5],8 µg/mL
same,MIC in presence of Sulbactam (4 μg/ml),[5]; + sulbactam 4 μg/ml,32 µg/mL
same,MIC in presence of Tazobactam (4 μg/ml),[5]; + tazobactam 4 μg/ml,32 µg/mL
same,MIC,[5],> 32 µg/mL
same,MIC,[6],8 µg/mL
same,MIC in presence of Clavulanic acid (4 μg/ml),[6]; [12],1 µg/mL
same,MIC in presence of Sulbactam (4 μg/ml),"[6]; KP S 691 (OXA 181, SHV, TEM, CTX-M 1), + sulbactam 4 μg/ml",2 µg/mL
same,MIC in presence of Tazobactam (4 μg/ml),"[6]; KP S 691 (OXA 181, SHV, TEM, CTX-M 1), + tazobactam 4 μg/ml",2 µg/mL
same,MIC in presence of Clavulanic acid (4 μg/ml),[7],8 µg/mL
same,MIC in presence of Sulbactam (4 μg/ml),[7]; + sulbactam 4 μg/ml,32 µg/mL
same,MIC in presence of Tazobactam (4 μg/ml),[7]; + tazobactam 4 μg/ml,32 µg/mL
same,MIC,[7],32 µg/mL
same,MIC in presence of Clavulanic acid (4 μg/ml),[8],4 µg/mL
same,MIC in presence of Sulbactam (4 μg/ml),[8]; + sulbactam 4 μg/ml,16 µg/mL
same,MIC in presence of Tazobactam (4 μg/ml),[8]; + tazobactam 4 μg/ml,16 µg/mL
same,MIC,[8],32 µg/mL
same,MIC in presence of Clavulanic acid (4 μg/ml),[9],2 µg/mL
same,MIC in presence of Sulbactam (4 μg/ml),[9]; + sulbactam 4 μg/ml,4 µg/mL
same,MIC in presence of Tazobactam (4 μg/ml),[9]; + tazobactam 4 μg/ml,4 µg/mL
same,MIC,[9],16 µg/mL
same,MIC in presence of Clavulanic acid (4 μg/ml),[10],4 µg/mL
same,MIC in presence of Sulbactam (4 μg/ml),[10]; + sulbactam 4 μg/ml,8 µg/mL
same,MIC in presence of Tazobactam (4 μg/ml),[10]; + tazobactam 4 μg/ml,16 µg/mL
same,MIC,[10],32 µg/mL
same,change of MIC values of ceftibuten in the presence of clavulanic acid,"[11]; strains of Table 1, clavulanic acid 4 μg/ml",significantly reduced
